In patent publication US6114310A, “Efflux pump inhibitors” (priority 1998, dated 2000):

Test system: Pseudomonas aeruginosa PAM1001
Assay: microbe, parasite or virus in culture
Assay type: cell-based
Summary of the method: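 Checkerboard broth microdilution (NCCLS) with the efflux pump inhibitor and levofloxacin, each diluted along one axis of the plate, in Mueller Hinton Broth. Inoculum 5×10^5 CFU/ml from early-log culture; incubation 20 h at 35° C. Growth read at 650 nm and visually.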

[1] = Table 1, EPI Conc. μg/ml (number not given; column between 10 and 40 μg/ml)
[2] = Table 2, EPI Conc. μg/ml (number not given; column between 10 and 40 μg/ml)
[3] = Table 3, EPI Conc. μg/ml (number not given; column between 10 and 40 μg/ml)
[4] = Table 4, EPI Conc. μg/ml (number not given; column between 10 and 40 μg/ml)

Measured: Levofloxacin MIC Against P. aeruginosa PAM1001 in Presence of Efflux Pump Inhibitor (EPI), Minimum Inhibitory Concentration

D-Ornithyl-β-(N-cyclohexylmethyl)alanine 2-naphthylamide [Compound 17 (Table 3)]
2 mg/L: Table 3, EPI Conc. 5 μg/ml | Table 4, EPI Conc. 10 μg/ml
0.50 mg/L: Table 2, EPI Conc. 10 μg/ml | Table 3, EPI Conc. 10 μg/ml
4 mg/L: Table 1, EPI Conc. 0 μg/ml | Table 1, EPI Conc. 0.625 μg/ml | Table 1, EPI Conc. […] | Table 2, EPI Conc. 0 μg/ml | Table 2, EPI Conc. 0.625 μg/ml | Table 2, EPI Conc. 5 μg/ml | Table 2, EPI Conc. […] | Table 3, EPI Conc. 0 μg/ml | Table 3, EPI Conc. 0.625 μg/ml | Table 3, EPI Conc. […] | Table 4, EPI Conc. 0 μg/ml | Table 4, EPI Conc. 0.625 μg/ml | Table 4, EPI Conc. 5 μg/ml | Table 4, EPI Conc. […]
0.06 mg/L: Table 1, EPI Conc. 5 μg/ml | Table 1, EPI Conc. 10 μg/ml | [2]
0.125 mg/L: Table 3, EPI Conc. 40 μg/ml | [3] | Table 4, EPI Conc. 40 μg/ml
0.015 mg/L: Table 1, EPI Conc. 40 μg/ml | Table 2, EPI Conc. 40 μg/ml
1 mg/L: [4]
0.03 mg/L: [1]

D-Lysyl-β-N-(3,3-Dimethylbutyl)alanine 2-Naphthylamide Trifluoroacetate [Example 30]
4 mg/L: Table 1, EPI Conc. 0 μg/ml | Table 1, EPI Conc. 0.625 μg/ml | Table 1, EPI Conc. 5 μg/ml | Table 1, EPI Conc. […] | Table 2, EPI Conc. 0 μg/ml | Table 2, EPI Conc. 0.625 μg/ml | Table 3, EPI Conc. 0 μg/ml | Table 3, EPI Conc. 0.625 μg/ml | Table 4, EPI Conc. 0 μg/ml | Table 4, EPI Conc. 0.625 μg/ml
2 mg/L: Table 1, EPI Conc. 10 μg/ml
0.03 mg/L: Table 1, EPI Conc. 40 μg/ml | Table 2, EPI Conc. 10 μg/ml | Table 2, EPI Conc. 40 μg/ml | [2] | Table 4, EPI Conc. 5 μg/ml | Table 4, EPI Conc. 10 μg/ml | [4]
0.25 mg/L: Table 2, EPI Conc. 5 μg/ml | Table 3, EPI Conc. 5 μg/ml
0.015 mg/L: Table 3, EPI Conc. 10 μg/ml | Table 3, EPI Conc. 40 μg/ml | [3] | Table 4, EPI Conc. 40 μg/ml
0.50 mg/L: [1]

D-Ornithyl-β-(N-4-methylphenethyl)alanine quinoline-3-amide [Compound 32 (Table 3)]
0.03 mg/L: [3]
2 mg/L: Table 2, EPI Conc. 5 μg/ml
0.50 mg/L: Table 2, EPI Conc. 10 μg/ml | [2]
0.25 mg/L: Table 1, EPI Conc. 10 μg/ml | Table 1, EPI Conc. 40 μg/ml | [1] | Table 3, EPI Conc. 5 μg/ml
0.06 mg/L: Table 2, EPI Conc. 40 μg/ml | Table 3, EPI Conc. 10 μg/ml | Table 4, EPI Conc. 10 μg/ml | Table 4, EPI Conc. 40 μg/ml | [4]
0.015 mg/L: Table 3, EPI Conc. 40 μg/ml
4 mg/L: Table 1, EPI Conc. 0 μg/ml | Table 1, EPI Conc. 0.625 μg/ml | Table 2, EPI Conc. 0 μg/ml | Table 2, EPI Conc. 0.625 μg/ml | Table 2, EPI Conc. […] | Table 3, EPI Conc. 0 μg/ml | Table 3, EPI Conc. 0.625 μg/ml | Table 4, EPI Conc. 0 μg/ml | Table 4, EPI Conc. 0.625 μg/ml
1 mg/L: Table 1, EPI Conc. 5 μg/ml | Table 4, EPI Conc. 5 μg/ml

D-Ornithyl-β-N-(Cyclopropylmethyl)alanine Quinoline-2-amide Trifluoroacetate [Example 28]
0.008 mg/L: Table 3, EPI Conc. 10 μg/ml
0.06 mg/L: [1]
1 mg/L: Table 1, EPI Conc. 10 μg/ml | Table 2, EPI Conc. 5 μg/ml
2 mg/L: Table 1, EPI Conc. 5 μg/ml | Table 4, EPI Conc. 5 μg/ml
0.50 mg/L: Table 2, EPI Conc. 10 μg/ml
0.25 mg/L: [2] | Table 4, EPI Conc. 10 μg/ml
0.125 mg/L: Table 1, EPI Conc. 40 μg/ml | Table 2, EPI Conc. 40 μg/ml | Table 4, EPI Conc. 40 μg/ml | [4]
4 mg/L: Table 1, EPI Conc. 0 μg/ml | Table 1, EPI Conc. 0.625 μg/ml | Table 1, EPI Conc. […] | Table 2, EPI Conc. 0 μg/ml | Table 2, EPI Conc. 0.625 μg/ml | Table 2, EPI Conc. […] | Table 3, EPI Conc. 0 μg/ml | Table 3, EPI Conc. 0.625 μg/ml | Table 4, EPI Conc. 0 μg/ml | Table 4, EPI Conc. 0.625 μg/ml
0.015 mg/L: Table 3, EPI Conc. 5 μg/ml | Table 3, EPI Conc. 40 μg/ml | [3]
